The target in assay [1] is whole RNP complex of IAV strain A/PR/8/34 (Influenza A virus, UniProt P03433). Put plainly: Transcription assay (TA assay). Type of assay: biochemical. To be noted: RNPs of A/PR/8/34, capped RNA substrate.
For assay [2], the system named is influenza A virus A/Aichi/2/68 (H3N2) on MDCK cells. Nature of the assay: Cytopathic effect (CPE) assay. It counts as cell-based. To be noted: for IC50: Influenza A virus, 48 hrs, the 2nd table; for CPE (% CPE reduction): @ 50 μM. A general note: Damage to the host cells serves as the signal in cytopathic effect assays.

The results in this text go back to patent US20160002226A1, “PYRI[…] AND THEIR USE IN THE TREATMENT, AMELIORATION OR PREVENTION OF INFLUENZA” (F. Hoffmann-La Roche AG, priority 2014, published 2016).

Usually IC50 stands for the concentration needed to halve the response being measured.

Some results are limits rather than exact numbers.

Turning to `CC(C)N1CCn2c(CN(Cc3cccc4ccccc34)C(=O)C3CC(F)(F)C3)cc(=O)c(O)c2C1=O`, the IC50 in assay [1] is 253 nM; in assay [2] it was greater than 50000 nM.
Turning to `CC(C)N1CCn2c(CN(C)Cc3ccccc3)cc(=O)c(O)c2C1=O`, the results for the IC50 in assay [1] and in assay [2] were 804 nM and greater than 50000 nM, respectively.
The like results for `CCN(Cc1ccccc1)Cc1cc(=O)c(O)c2n1CCN(C(C)C)C2=O` were, in that order, 1560 nM and greater than 50000 nM.
Take `CC(C)N1CCn2c(CN(C)Cc3ccc(Cl)cc3)cc(=O)c(O)c2C1=O`: the values for the 50% inhibitory concentration (IC50) in assay [1] and in assay [2] were 2110 nM and greater than 50000 nM, respectively.
The like results for `CCCN(Cc1cccc(-c2ccccc2)c1)Cc1cc(=O)c(O)c2n1CCN(C(C)C)C2=O` were, in that order, 690 nM and greater than 50000 nM.
Compound `CCN(Cc1ccc(Cl)cc1)Cc1cc(=O)c(O)c2n1CCN(C(C)C)C2=O.O=C(O)C(F)(F)F` had a 50% inhibitory concentration (IC50) in assay [1] of 682 nM. Further, the “CPE (% CPE reduction)” value in assay [2] was 18% @ 50 μM.
Take `CCCN(Cc1cc(=O)c(O)c2n1CCN(C(C)C)C2=O)CC1(c2ccccc2)CCCC1`: the results for the IC50 in assay [1] and in assay [2] were 452 nM and greater than 50000 nM, respectively.
The like results for `CC(C)N1CCn2c(CN(Cc3ccccc3-c3ccccc3)C(=O)C3CC(F)(F)C3)cc(=O)c(O)c2C1=O` were, in that order, 229 nM and greater than 50000 nM.
The like results for `CCCN(Cc1cccc2ccccc12)Cc1cc(=O)c(O)c2n1CCN(C(C)C)C2=O` were, in that order, 1020 nM and greater than 50000 nM.
For `CCCN(Cc1ccc(-c2ccccc2)cc1)Cc1cc(=O)c(O)c2n1CCN(C(C)C)C2=O`, the IC50 is 63800 nM in assay [1] and greater than 50000 nM in assay [2].
With `CC(C)N1CCn2c(CN(C)Cc3cccc(Cl)c3)cc(=O)c(O)c2C1=O.O=C(O)C(F)(F)F`, in assay [1], inhibition was half-maximal at 81 nM (IC50). For the same compound, the “CPE (% CPE reduction)” value in assay [2] came out at 30.8% @ 50 μM.
`CC(C)N1CCn2c(CNCc3ccccc3-c3ccccc3)cc(=O)c(O)c2C1=O`: the IC50 in assay [1] was 535 nM; in assay [2], greater than 50000 nM.
The like results for `CCN(Cc1cccc2ccccc12)Cc1cc(=O)c(O)c2n1CCN(C(C)C)C2=O` were, in that order, 220 nM and greater than 50000 nM.
Regarding `CCCN(Cc1ccccc1-c1ccccc1)Cc1cc(=O)c(O)c2n1CCN(C(C)C)C2=O.O=C(O)C(F)(F)F`, in assay [1], the “TA IC50” value is “in- soluble”. Further, in assay [2], the IC50 was greater than 50000 nM.
As for `CC(C)N1CCn2c(CN(Cc3ccccc3)C(=O)C3CC(F)(F)C3)cc(=O)c(O)c2C1=O`, the values for the IC50 in assay [1] and in assay [2] were 2980 nM and greater than 50000 nM, respectively.
